This experiment relates to influenza virus (A/WS/33). The following applies: FIG. 6.

Each structure is given as a SMILES string.

Description: The protocol described here is a two-step assay, i.e., the neuraminidase reaction and firefly luciferase reaction are carried out sequentially in two steps. Approximately 1 μg of conjugate was incubated at 37° C. for 15 minutes with 0, 0.5, 5, 50, 500 or 5,000 TCID50 units of influenza virus (A/WS/33) in a 25 μL reaction solution (32.5 mM MES, pH 6.5, 4 mM CaCl2, 0.65% Triton X-100). 12.5 μL of the reaction solution was mixed with 100 μL of luciferase reaction solution (20 nM recombinant firefly luciferase, 4 mM ATP, 13.4 mM MgSO4, 100 mM Trizma, pH 7.9, 4% mannitol, and 1% sucrose) and measured for light signal using a luminometer (Sirius purchased from Berthold). Total light output was collected by integrating RLU over a period of 30 seconds.

As for `CC(=O)NC1C(O)CC(Oc2ccc3nc(C4=NC(C(=O)O)CS4)sc3c2)(C(=O)O)OC1C(O)C(O)CO` (centres unmarked) [N-acetylneuraminic acid-firefly luciferin conjugate], the “influenza virus input resulting in significantly more signal in comparison with the negative control” value (approx. 1 μg conjugate, 37° C., 15 minutes, pH 6.5, RLU integrated over 30 seconds) is listed as 50 TCID50 units. For the same molecule, the “response of the signal to virus input” value (over the entire range tested (0.5 to 5,000 TCID50 units)) is recorded as “linear response”.

For the origin of these results see patent US8558004B2, “Reagents and kits for detection of influenza virus and the like” (priority 2007, dated 2013).
